Common to all, as to type: in vivo
Assay [1] concerns diamondback moths (Plutella xylostella). As to the kind of experiment: Insecticidal test against diamondback moth (leaf dip). As to conditions: foliar, 144 h, read-out: insecticidal rate (rate of dead insects). The method, then: (§1) A 10% emulsifiable concentrate (depending on the compounds, 25% wettable powder was applied for the test) of the compound of the present invention was diluted with water containing a spreading agent to prepare a chemical solution with a concentration of 100 ppm. To the chemical solution was dipped leaves of Chinese olive for about 10 seconds, and after air-drying, they were placed in a laboratory dish, then, 10 diamondback moths (Plutella xylostella) with second instar larvae per the dish were released therein, and the dish was covered with a lid having holes and contained at a thermostat chamber at 25° C. A number of dead insect(s) after 6 days was counted and a rate of dead insects was calculated in the same manner as in Test Example 1. Incidentally, the test was carried out with two districts.

Assay [2] deals with Common cutworms (Spodoptera litura). As to the kind of experiment: Insecticidal test against common cutworm (leaf dip). Particulars: foliar, 144 h, read-out: insecticidal rate (rate of dead insects). The method, then: as §1, with “10 Common cutworms (Spodoptera litura)” for “10 diamondback moths (Plutella xylostella)”, “calculated by” for “calculated in”, “the following calculation formula.” for “the same manner as in Test Example 1.”, “districts. Rate of dead insects (%)=(Number of dead insects/Number of released insects)×100” for “districts.”

The subject of assay [3] is Common cutworm (Spodoptera litura). As to the kind of experiment: Insecticidal test (comparative test) against common cutworm, third instar larvae. Particulars: leaf dip, counted after 6 days. As to the method:
10% emulsifiable concentrates of the compound of the present invention and comparative compound were diluted with water containing a spreading agent to prepare chemical solutions with a predetermined concentration. To the chemical solutions was dipped leaves of Chinese olive for about 10 seconds, and after air-drying, they were placed in a laboratory dish, then, 7 Common cutworm (Spodoptera litura) with third instar larvae per the dish were released therein, and the dish was covered with a lid having holes and contained at a thermostat chamber at 25° C. Artificial feed (1 cm^3) was added after 2 days, a number of dead insect(s) was counted after 6 days and a rate of dead insects was calculated by the following calculation formula. Incidentally, the test was carried out with two districts. Rate of dead insects (%)=(Number of dead insects/Number of released insects)×100

The mark [4] stands for this setting: 100 ppm, leaf dip, second instar larvae, after 6 days, 25° C.

Where two headings read alike, the source gives them in different places.

For `Cc1cc(C(O)(c2ccc(OC(F)(F)F)cc2)C(F)(F)F)ccc1NC(=O)c1cccc(I)c1C(=O)NC(C)C` (stereo not shown) [Compound No. 1-009, N^1-[4-[2,2,2-trifluoro-1-hydroxy-1-(4-trifluoromethoxyphenyl)ethyl]-2-methylphenyl]-3-iodo-N^2-isopropylphthalic diamide], the figures for the pest or weed control at 100 ppm in assay [1] and in assay [2] were 100% and at least 80%, respectively.

For the molecule `Cc1cc(C(O)(COc2ccc(Cl)cc2)C(F)(F)F)ccc1NC(=O)c1cccc(I)c1C(=O)NC(C)C` (stereo not shown) [Compound No. 2-004, N^1-[4-[2-(4-chlorophenoxy)-1-hydroxy-1-trifluoromethylethyl]-2-methylphenyl]-3-iodo-N^2-isopropylphthalic diamide], the pest or weed control at 100 ppm in assay [1] (setting [4]) was 100%; in assay [2] (setting [4]), at least 80%.

For `CSCC(C)(C)NC(=O)c1c(I)cccc1C(=O)Nc1ccc(C(O)c2ccc(Cl)cc2)cc1C` (stereo not shown) [Comparative compound A, reference compound], the “Rate of dead insects” value in assay [3] (concentration 33 ppm) is 0%.

With `Cc1cc(C(O)(C(F)(F)F)C(F)(F)Oc2ccc(Cl)cc2)ccc1NC(=O)c1cccc(I)c1C(=O)NC(C)C` (stereo not shown) [Compound No. 2-008, N^1-[4-[2-(4-chlorophenoxy)-2,2-difluoro-1-hydroxy-1-trifluoromethylethyl]-2-methylphenyl]-3-iodo-N^2-isopropylphthalic diamide], the pest or weed control at 100 ppm is 100% in assay [1] (setting [4]) and at least 80% in assay [2] (setting [4]).

As for `Cc1cc(C(O)(c2ccc(OS(C)(=O)=O)cc2)C(F)(F)F)ccc1NC(=O)c1cccc(I)c1C(=O)NC(C)C` (stereo not shown) [Compound No. 1-015, N^1-[4-[2,2,2-trifluoro-1-hydroxy-1-(4-methanesulfonyloxyphenyl)ethyl]-2-methylphenyl]-3-iodo-N^2-isopropylphthalic diamide], the values for the pest or weed control at 100 ppm in assay [1] and in assay [2] were 100% and at least 80%, respectively.

With `COC(c1ccc(Cl)cc1)(c1ccc(NC(=O)c2cccc(I)c2C(=O)NC(C)C)c(C)c1)C(F)(F)F` (stereo not shown) [Compound No. 3-002, N^1-[4-[1-(4-chlorophenyl)-2,2,2-trifluoro-1-methoxyethyl]-2-methylphenyl]-3-iodo-N^2-isopropylphthalic diamide], the pest or weed control at 100 ppm in assay [1] was 100%; in assay [2] it was at least 80%.

For the molecule `Cc1cc(C(O)(c2ccc3c(c2)OC(F)(F)C(F)(F)O3)C(F)(F)F)ccc1NC(=O)c1cccc(I)c1C(=O)NC(C)C` (stereo not shown) [1-028, N^1-[4-[2,2,2-trifluoro-1-hydroxy-1-(2,2,3,3-tetrafluoro-1,4-dioxa-2,3-dihydronaphthalen-6-yl)ethyl]-2-methylphenyl]-3-iodo-N^2-isopropylphthalic diamide], the pest or weed control at 100 ppm is 100% in assay [1] and at least 80% in assay [2].

For the molecule `Cc1cc(C(O)(c2ccc(Cl)cc2)C(F)(F)F)ccc1NC(=O)c1cccc(I)c1C(=O)NC(C)(C)CS(C)(=O)=O` (stereo not shown) [1-087], the “Rate of dead insects” value in assay [3] (concentration 0.1 ppm) stood at 0%; in assay [3] (concentration 0.3 ppm), 21.3%; in assay [3] (concentration 1 ppm), 71.4%; in assay [3] (concentration 3 ppm), 100%; in assay [3] (concentration 10 ppm) it was 100%; in assay [3] (concentration 33 ppm) it was 100%.

With `Cc1cc(C(O)(C=Cc2ccc(Cl)cc2)C(F)(F)F)ccc1NC(=O)c1cccc(I)c1C(=O)NC(C)C` (stereo not shown) [Compound No. 2-018, N^1-[4-[3-(4-chlorophenyl)-1-hydroxy-1-trifluoromethyl-2-propenyl]-2-methylphenyl]-3-iodo-N^2-isopropylphthalic diamide], the pest or weed control at 100 ppm is 100% in assay [1] (setting [4]) and at least 80% in assay [2] (setting [4]).

`Cc1cc2c(cc1NC(=O)c1cccc(I)c1C(=O)NC(C)C)OC(F)(F)C2(O)C(F)(F)F` (stereo not shown) [Compound No. 4-002, N^1-(2,2-difluoro-3-hydroxy-5-methyl-3-trifluoromethyl-2,3-dihydrobenzofuran-6-yl)-3-iodo-N^2-isopropylphthalic diamide]: the pest or weed control at 100 ppm is 100% in assay [1] (setting [4]) and at least 80% in assay [2] (setting [4]).

Turning to `CSCC(C)(C)NC(=O)c1c(I)cccc1C(=O)Nc1ccc(C(O)(c2ccc(Cl)cc2)C(F)(F)F)cc1C` (stereo not shown) [1-084], the “Rate of dead insects” value was 0% in assay [3] (concentration 0.3 ppm); 21.3% in assay [3] (concentration 1 ppm); 71.4% in assay [3] (concentration 3 ppm); 100% in assay [3] (concentration 10 ppm); 100% in assay [3] (concentration 33 ppm).

On to `CSCC(C)NC(=O)c1c(I)cccc1C(=O)Nc1ccc(C(O)(c2ccc(Cl)cc2)C(F)(F)F)cc1C` (stereo not shown) [1-036], for which the “Rate of dead insects” value is 14.3% in assay [3] (concentration 0.1 ppm); 28.6% in assay [3] (concentration 0.3 ppm); 85.7% in assay [3] (concentration 1 ppm); 100% in assay [3] (concentration 3 ppm); 100% in assay [3] (concentration 10 ppm); 100% in assay [3] (concentration 33 ppm).
